Among the test systems are ACHN; COLO 205; DU-145; EKVX; HCT-116; HCT-15; M14; MDA-MB-231; MDA-N; MOLT-4; NCI-H460; OVCAR-4; OVCAR-5; PC-3; SK-OV-3; SN12C; SNB-19; SW-620; T47D; UO-31.
What all share (experiment): NCI anticancer screen, dose series, 48 h

SMILES strings stand for the structures.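 Values below derive from 48-hour exposures of cells grown in 96-well plates, with endpoints linearly interpolated between the two concentrations bracketing the appropriate inhibition level. GI50 marks 50% less growth.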 Active and inactive are the calls of the source. Cut-off read from the data, not from the text of the source: active = GI50 up to about 1.1 µM and inactive = higher. Where only a bound is given, the exact number is not on record here.

Here are results for ten compounds from ChEMBL document CHEMBL1201862, “PubChem BioAssay data set” (2004).

Regarding `CC12CCC(=O)C=C1CCC1C2CCC2(C)C(C(=O)Cn3cnc4c(=S)nc[nH]c43)CCC12` (stereo not given), the GI50 with ACHN is 40 µM (inactive); with COLO 205 it was 42 µM (inactive); with DU-145 it was 23.3 µM (inactive); in the test on EKVX it was 41.5 µM (inactive); in the test on HCT-116, 35.9 µM (inactive); in the test with HCT-15, 58.6 µM. For the same compound, the GI50 with M14 is 27.5 µM (inactive); with MDA-MB-231 it was 38.9 µM (inactive); in the test with MDA-N, 39.2 µM (inactive); with MOLT-4, 21.6 µM (inactive); with NCI-H460 it was 28.8 µM (inactive); with OVCAR-4, 17.3 µM (inactive). The GI50 was > 100 µM (inactive) with OVCAR-5; 63.7 µM (inactive) with PC-3; 33.5 µM (inactive) in the test on SK-OV-3; 67.8 µM (inactive) with SN12C; 23.6 µM (inactive) with SNB-19; 76.2 µM (inactive) with SW-620. The figures for the GI50 in the test with T47D and in the test on UO-31 were 9.23 µM (inactive) and 44.8 µM (inactive), respectively.
`Fc1ccccc1-c1cc(S)c2cc3c(cc2n1)OCO3`: the GI50 in the test on ACHN was 38 µM (inactive); in the test with COLO 205, 28.6 µM (inactive); in the test on DU-145, 13 µM (inactive); with EKVX, 10.5 µM (inactive); in the test on HCT-116, 7.08 µM (inactive); in the test on HCT-15, 5.65 µM. The GI50 in the test on M14 is 6.61 µM (inactive); in the test with MDA-MB-231, > 56.1 µM (inactive); in the test with MDA-N it was 3.03 µM (inactive); in the test with MOLT-4, 9.62 µM (inactive); in the test with NCI-H460, 4.57 µM (inactive); in the test with OVCAR-4, > 100 µM (inactive). In addition, the GI50 in the test with OVCAR-5 is > 51.3 µM (inactive); with PC-3 it was 6.08 µM (inactive); with SK-OV-3 it was 16.1 µM (inactive); in the test on SN12C it was 34.2 µM (inactive); with SNB-19 it was 15.2 µM (inactive); in the test with SW-620 it was 5.85 µM (inactive). For the same compound, the GI50 in the test on T47D is 28.1 µM (inactive); in the test on UO-31 it was 27.5 µM (inactive).
For the compound `Cc1cc2nc3[nH]c4c(Cl)cc(Cl)cc4c3nc2cc1C`, the GI50 with ACHN was > 100 µM (inactive); with COLO 205, > 100 µM (inactive); in the test on DU-145 it was 86.3 µM (inactive); in the test on EKVX it was > 100 µM (inactive); in the test with HCT-116, > 100 µM (inactive); in the test with HCT-15, more than 100 µM. Also, the GI50 in the test with M14 is > 100 µM (inactive); in the test with MDA-MB-231, > 100 µM (inactive); in the test with MDA-N, > 100 µM (inactive); with MOLT-4, 74 µM (inactive); with NCI-H460 it was > 100 µM (inactive); with OVCAR-4, > 100 µM (inactive). Also, the GI50 with OVCAR-5, with PC-3, in the test on SK-OV-3, with SN12C, in the test on SNB-19 and with SW-620 was > 100 µM (inactive) throughout. For the same compound, the GI50 in the test on T47D and with UO-31 was > 100 µM (inactive) throughout.
On to `CS(=O)(=O)N1CC(CCl)c2ccc(NO)cc21` (stereo not given), for which the GI50 in the test with ACHN was 7.94 µM (inactive); with COLO 205, 18 µM (inactive); with DU-145 it was 6.89 µM (inactive); with EKVX it was 16.7 µM (inactive); in the test on HCT-116, 14.7 µM (inactive); with HCT-15, 14.2 µM. Also, the GI50 with M14 was 16.2 µM (inactive); in the test with MDA-MB-231, 15.6 µM (inactive); in the test on MDA-N, 16.9 µM (inactive); in the test with MOLT-4 it was 3.48 µM (inactive); in the test with NCI-H460 it was 14.9 µM (inactive); in the test on OVCAR-4, 17.5 µM (inactive). Also, the GI50 is 15.1 µM (inactive) in the test on OVCAR-5; 12 µM (inactive) in the test with PC-3; 18.7 µM (inactive) in the test on SK-OV-3; 15.3 µM (inactive) in the test on SN12C; 22.5 µM (inactive) with SNB-19; 12.6 µM (inactive) in the test with SW-620. The GI50 in the test with T47D is 21.9 µM (inactive); with UO-31, 10.3 µM (inactive).
Consider `O=C(CSc1nnc(SCC(=O)NN=C2CCCCC2)s1)NN=C1CCCCC1`, for which the GI50 with ACHN was > 100 µM (inactive); in the test on COLO 205, > 100 µM (inactive); in the test on DU-145, > 100 µM (inactive); with EKVX, > 100 µM (inactive); in the test on HCT-116, > 100 µM (inactive); in the test with HCT-15, more than 100 µM. The GI50 in the test on M14, with MDA-MB-231, in the test with MDA-N, in the test with MOLT-4, with NCI-H460 and in the test with OVCAR-4 was > 100 µM (inactive) in each case. For the same compound, the GI50 in the test on OVCAR-5, in the test on PC-3, in the test on SK-OV-3, in the test with SN12C, in the test with SNB-19 and in the test on SW-620 was > 100 µM (inactive) in each case. In addition, the GI50 in the test on T47D and with UO-31 was > 100 µM (inactive) in each case.
As to `CCCCNC(=S)N/N=C/c1cccc(C)n1`, the GI50 in the test with ACHN was 23 µM (inactive); in the test on COLO 205 it was 33.7 µM (inactive); with DU-145 it was 83.2 µM (inactive); in the test on EKVX, 24.8 µM (inactive); in the test with HCT-116, 20.7 µM (inactive); in the test on HCT-15 it was 47.6 µM. Further, the GI50 is 25.1 µM (inactive) with M14; 35.7 µM (inactive) in the test with MDA-MB-231; 42.8 µM (inactive) with MDA-N; 10.7 µM (inactive) in the test with MOLT-4; 32.4 µM (inactive) in the test on NCI-H460; 55.1 µM (inactive) in the test with OVCAR-4. Besides, the GI50 in the test with OVCAR-5 is 43.2 µM (inactive); in the test on PC-3, 47 µM (inactive); in the test with SK-OV-3, 59.8 µM (inactive); in the test on SN12C it was 30.1 µM (inactive); with SNB-19, 39.3 µM (inactive); in the test on SW-620, 49.1 µM (inactive). The GI50 in the test with T47D is 26 µM (inactive); with UO-31, 29 µM (inactive).
`COCCOCc1nc(C#N)c(N)o1`: the GI50 in the test on ACHN was > 100 µM (inactive); in the test with COLO 205, > 100 µM (inactive); in the test on DU-145, > 100 µM (inactive); with EKVX it was > 100 µM (inactive); in the test on HCT-116 it was > 100 µM (inactive); in the test with HCT-15, more than 100 µM. Moreover, the GI50 with M14, in the test on MDA-MB-231, in the test on MDA-N, with MOLT-4, with NCI-H460 and in the test on OVCAR-4 was > 100 µM (inactive) in each case. The GI50 with OVCAR-5, in the test on PC-3, with SK-OV-3, in the test on SN12C, in the test with SNB-19 and with SW-620 was > 100 µM (inactive) throughout. For the same compound, the GI50 in the test with T47D and in the test on UO-31 was > 100 µM (inactive) throughout.
Regarding `Cc1cnc2c(c1)C(=O)C1=C(C2=O)C2OC(=O)CC2OC1(C)C` (stereo not given), the GI50 in the test on ACHN was 0.107 µM (active); in the test with COLO 205 it was 0.0462 µM (active); with DU-145, 1.64 µM (inactive); in the test on EKVX, 0.209 µM (active); with HCT-116, 0.0681 µM (active); in the test on HCT-15 it was 0.0643 µM. The GI50 was 0.254 µM (active) with M14; 0.0764 µM (active) with MDA-MB-231; 0.281 µM (active) in the test with MDA-N; 0.0776 µM (active) in the test with MOLT-4; 0.76 µM (active) with NCI-H460; 0.159 µM (active) in the test on OVCAR-4. The GI50 with OVCAR-5 is 0.301 µM (active); in the test on PC-3, 0.16 µM (active); with SK-OV-3, 1.35 µM (inactive); in the test on SN12C it was 0.161 µM (active); in the test on SNB-19 it was 1.16 µM (inactive); in the test with SW-620, 0.0782 µM (active). Besides, the GI50 with T47D is 0.304 µM (active); in the test on UO-31, 0.458 µM (active).
On to `O=C([C@H](O)[C@@H](O)c1cccc(Cl)c1)C12CC3CC(CC(C3)C1)C2`, for which the GI50 with ACHN was 1.91 µM (inactive); in the test with COLO 205 it was 2.13 µM (inactive); with DU-145, 2.25 µM (inactive); in the test on EKVX, 2.07 µM (inactive); with HCT-116, 1.86 µM (inactive); in the test with HCT-15, 2.24 µM. Further, the GI50 in the test on M14 is 2.45 µM (inactive); with MDA-MB-231, 2.12 µM (inactive); in the test on MDA-N, 1.93 µM (inactive); in the test with MOLT-4, 2.84 µM (inactive); in the test with NCI-H460, 1.85 µM (inactive); with OVCAR-4, 2.4 µM (inactive). In addition, the GI50 is 3.1 µM (inactive) in the test with OVCAR-5; 1.87 µM (inactive) in the test with PC-3; 8.71 µM (inactive) in the test on SK-OV-3; 1.61 µM (inactive) in the test with SN12C; 1.82 µM (inactive) in the test on SNB-19; 2.06 µM (inactive) with SW-620. Moreover, the GI50 was 2.16 µM (inactive) with T47D and 1.9 µM (inactive) in the test on UO-31.
Consider `C=C1C(=O)O[C@H]2[C@@H](O)[C@H](C)CCC/C(C)=C/CC[C@@]3(C)O[C@@H]3C[C@@H]12`, for which the GI50 with ACHN was 2.16 µM (inactive); in the test with COLO 205 it was 3.93 µM (inactive); in the test on DU-145 it was 6.03 µM (inactive); in the test with EKVX, 4.22 µM (inactive); in the test with HCT-116, 3.19 µM (inactive); with HCT-15 it was 1.92 µM. For the same compound, the GI50 was 3.94 µM (inactive) with M14; 12.9 µM (inactive) in the test with MDA-MB-231; 11.2 µM (inactive) with MDA-N; 2.29 µM (inactive) in the test with MOLT-4; 5.89 µM (inactive) in the test on NCI-H460; 7.16 µM (inactive) in the test on OVCAR-4. Also, the GI50 with OVCAR-5 is 15.7 µM (inactive); in the test with PC-3, 13.7 µM (inactive); in the test on SK-OV-3, 18.5 µM (inactive); with SN12C it was 5.77 µM (inactive); in the test with SNB-19, 16.7 µM (inactive); with SW-620 it was 10.2 µM (inactive). For the same compound, the GI50 in the test on T47D was 3.4 µM (inactive); in the test with UO-31 it was 5.47 µM (inactive).
